Assay results taken from patent publication US5885789A, “Solution-based assay for peroxidatively-active substances in bodily fluids” (STC Technologies Incorporated, priority 1997, dated 1999).

Experiment: Calibration of the Working Reagent at 660 nm (aqueous hemoglobin solutions)
Type: biochemical
Details: 2 minutes, 37° C.
Protocol: To prepare the solution-based assay composition, 14 mL of stock reagent B was poured into 1 mL of stock reagent A and mixed gently for 1-2 minutes by stirring. The combined A/B reagent was poured into 1 L of stock reagent C and mixed gently by stirring for approximately 30 minutes and allowed to stand at room temperature overnight prior to use. This prepared a working solution-based assay composition to be used as a working reagent.
A solution-based assay composition prepared according to Example 1 was used to calibrate its detectable color change having an absorbance at about 660 nm. Aqueous solutions of hemoglobin were prepared in the concentrations of 0.055, 0.060, 0.065, 0.068, 0.070, and 0.075 mg/dL. Twenty-one replicates of each hemoglobin solution were run using the following procedure.
The solution-based assay composition (or working reagent) and the hemoglobin solutions were equilibrated at room temperature before use. A 15 microliter sample of a hemoglobin solution and 250 microliters of the working reagent were transferred to the sample wheel of a Cobas-Bio autoanalyzer which was equilibrated at 37° C. The sample and the working reagent were mixed by rotation of the sample wheel. After the sample and working reagent were allowed to react for 2 minutes, the absorbance of the resulting solution was measured at 660 nm. The calibration curve shown in FIG. 1 was generated by plotting absorbance versus concentration data shown in Table 1 below and using standard regression analysis. This calibration curve can then be used to quantitatively assay the amount of hemoglobin in a bodily fluid.

HEMOGLOBIN
ABSORBANCE, 660 nm (hemoglobin 0.055 mg/dL, 15 microliter sample + 250 microliters working reagent): 0.1139 | ABSORBANCE, 660 nm (hemoglobin 0.06 mg/dL): 0.1319 | ABSORBANCE, 660 nm (hemoglobin 0.065 mg/dL): 0.1474 | ABSORBANCE, 660 nm (hemoglobin 0.0675 mg/dL): 0.1557 | ABSORBANCE, 660 nm (hemoglobin 0.070 mg/dL): 0.1719 | ABSORBANCE, 660 nm (hemoglobin 0.075 mg/dL): 0.1877
